Assay results reported in patent publication US8101761B2, “(E)-N-{3-[1-(8-fluoro-11H-10-OXA-1-AZA-dibenzo [A,D] cyclohepten-5ylidene)-propyl]-phenyl}-methanesulfonamide as glucocorticoid receptor modulator for the treatment of rheumatoid arthritis” (Eli Lilly and Company, priority 2008, dated 2012).

Key:
[1] = target: T1, human mineralocorticoid receptor (MR) (Homo sapiens, UniProt P08235); test: Nuclear hormone receptor functional modulation assay (GRE-luciferase reporter, HEK293), MR; assay type: cell-based; settings: agonist mode, mean of n=4 or 5
T1 construct: expressed in transfected cells; host or cells: HEK293, transient transfection, CMV promoter plasmid
T1 sequence (P08235 1-984): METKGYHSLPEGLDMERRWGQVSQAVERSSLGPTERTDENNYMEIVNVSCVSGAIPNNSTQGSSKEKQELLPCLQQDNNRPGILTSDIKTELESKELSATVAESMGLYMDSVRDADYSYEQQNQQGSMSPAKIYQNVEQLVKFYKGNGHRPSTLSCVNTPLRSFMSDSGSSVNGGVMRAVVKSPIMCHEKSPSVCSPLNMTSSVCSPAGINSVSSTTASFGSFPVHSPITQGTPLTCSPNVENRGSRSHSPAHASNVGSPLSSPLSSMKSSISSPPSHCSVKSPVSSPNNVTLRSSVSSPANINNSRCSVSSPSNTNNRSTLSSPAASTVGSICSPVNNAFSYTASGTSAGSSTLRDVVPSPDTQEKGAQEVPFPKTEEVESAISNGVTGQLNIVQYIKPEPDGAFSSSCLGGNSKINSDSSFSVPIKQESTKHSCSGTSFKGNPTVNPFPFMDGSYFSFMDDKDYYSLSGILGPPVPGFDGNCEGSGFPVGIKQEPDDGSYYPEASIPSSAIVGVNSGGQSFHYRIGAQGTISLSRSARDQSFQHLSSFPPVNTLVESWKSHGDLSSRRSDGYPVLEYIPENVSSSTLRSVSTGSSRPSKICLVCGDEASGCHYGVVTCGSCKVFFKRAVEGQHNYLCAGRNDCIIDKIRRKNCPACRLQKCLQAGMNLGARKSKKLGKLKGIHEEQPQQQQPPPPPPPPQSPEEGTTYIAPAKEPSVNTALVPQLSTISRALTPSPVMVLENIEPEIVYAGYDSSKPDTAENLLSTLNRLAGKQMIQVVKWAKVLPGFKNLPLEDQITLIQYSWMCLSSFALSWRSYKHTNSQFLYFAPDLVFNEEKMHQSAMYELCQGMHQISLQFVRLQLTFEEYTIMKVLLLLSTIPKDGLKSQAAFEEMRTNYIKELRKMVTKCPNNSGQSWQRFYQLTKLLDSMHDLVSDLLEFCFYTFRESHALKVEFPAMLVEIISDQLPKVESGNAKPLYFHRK
Excerpt: (§1) The solvents, reagents, and ligands employed in the functional assay are readily available from commercial sources, or can be prepared by one of ordinary skill in the art.
(§2) Human embryonic kidney HEK293 cells are transfected with steroid hormone receptor and reporter gene plasmids using Fugene™ transfection reagent. Briefly, the reporter plasmid containing two copies of probasin ARE and TK(thymidine kinase) promoter upstream of the luciferase reporter cDNA, is transfected into HEK293 cells with a plasmid constitutively expressing human androgen receptor (AR) using viral CMV(cytomegalovirus) promoter. The reporter plasmid containing two copies of GRE and TK promoter upstream of the luciferase reporter cDNA is transfected with a plasmid constitutively expressing either human glucocorticoid receptor (GR), human mineralocorticoid receptor (MR), or human progesterone receptor (PR) using viral CMV promoter. […] After 24-hours incubation with test compounds, cells are lysed and luciferase activity is determined using standard techniques.
(§3) Data are fitted to a four parameter-fit logistic curve fit to determine EC50 values. […] IC50 values may be determined similarly using antagonist mode assay data. Percent inhibitions may also be determined relative to the response in the presence of agonist alone, as described above.

[2] = tested on: TNF-α production in PMA-differentiated U937 cells; test: GR-mediated transrepression: LPS-stimulated TNF-α production in PMA-differentiated U937 cells; assay type: cell-based, human
Experimental: 2. LPS-Stimulated TNF-α Production in PMA-Differentiated U937 Cells:
Human U937 pre-monocytic cells, obtained from ATCC, are grown in complete RPMI 1640 medium containing 10% FBS. To allow monocytes to differentiate to adherent macrophages, U937 cells are washed in calcium, magnesium free and resuspended in fresh RPMI medium containing 20 nM phorbol 12-myristate-13-acetate (PMA) overnight. After differentiation, test compounds are added to the cells in the 96-well plate at various concentrations ranging from about 4.65 pM to 4.64 μM. 1-hour post treatment with test compound, LPS is added at final concentration of 100 ng/ml and the reaction mixture is incubated overnight. 25 μl cell-free supernatant is transferred from each well to another 96-well plate and TNF-α production is measured using an ELISA kit with TNF-α being quantified by reading absorbance at 450 nm.

[3] = target: T2, human glucocorticoid receptor (GR) (Homo sapiens, UniProt P04150); test: Nuclear hormone receptor functional modulation assay (GRE-luciferase reporter, HEK293), GR; assay type: cell-based; settings: agonist mode, mean of n=4 or 5
T2 construct: expressed in transfected cells; host or cells: HEK293, transient transfection, CMV promoter plasmid
T2 sequence (P04150 1-777): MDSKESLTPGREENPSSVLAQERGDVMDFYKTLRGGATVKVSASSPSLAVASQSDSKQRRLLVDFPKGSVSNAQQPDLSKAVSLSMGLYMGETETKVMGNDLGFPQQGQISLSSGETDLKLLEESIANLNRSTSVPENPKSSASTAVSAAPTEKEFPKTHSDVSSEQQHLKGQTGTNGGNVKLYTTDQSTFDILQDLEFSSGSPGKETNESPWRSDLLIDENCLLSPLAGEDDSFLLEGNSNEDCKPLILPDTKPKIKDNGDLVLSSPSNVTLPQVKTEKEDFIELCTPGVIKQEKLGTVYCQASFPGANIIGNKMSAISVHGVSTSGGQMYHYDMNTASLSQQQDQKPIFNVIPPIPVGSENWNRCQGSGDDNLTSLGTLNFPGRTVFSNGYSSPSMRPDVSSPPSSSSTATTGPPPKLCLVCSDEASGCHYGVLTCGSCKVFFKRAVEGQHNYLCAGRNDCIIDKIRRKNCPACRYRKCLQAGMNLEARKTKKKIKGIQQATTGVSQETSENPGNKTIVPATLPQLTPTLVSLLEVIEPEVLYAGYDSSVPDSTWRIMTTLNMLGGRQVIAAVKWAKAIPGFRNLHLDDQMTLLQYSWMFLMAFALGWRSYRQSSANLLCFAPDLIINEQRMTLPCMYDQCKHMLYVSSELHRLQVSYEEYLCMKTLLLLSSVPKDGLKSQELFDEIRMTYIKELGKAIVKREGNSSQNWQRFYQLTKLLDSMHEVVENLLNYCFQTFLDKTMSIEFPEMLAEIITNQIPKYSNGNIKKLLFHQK
Excerpt: as §1, §2, §3

efficacy in activating transcription, MR ([1]; relative to 30 nM aldosterone): about 11%
EC50 ([1]; read-out: EC50 in activating transcription, MR): > 10 µM
IC50 ([2]; Homo sapiens, U-937, LPS 100 ng/ml, average of n=4, read-out: IC50, inhibition of TNF-α expression): ~21 nM
efficacy in activating transcription, GR ([3]; relative to 100 nM dexamethasone): about 44%
EC50 ([3]; read-out: EC50 in activating transcription, GR): ~1.8 nM
SMILES: CC/C(=C1\c2ccc(F)cc2OCc2ncccc21)c1cccc(NS(C)(=O)=O)c1 [Compound (I), (E)-N-{3-[1-(8-Fluoro-11H-10-oxa-1-aza-dibenzo[a,d]cyclohepten-5-ylidene)-propyl]-phenyl}-methanesulfonamide]
maximal inhibition of the endogenous expression of TNF-α ([2]; LPS 100 ng/ml, n=4): ≥ 90%
